{
  "source": "patent US20040229772A1",
  "about": "“Peptides responsive to antibodies against consensus peptide of the CS4-CFA/I family proteins” (priority 1996, published 2004)",
  "type_in_all_cases": "binding",
  "key": {"[1]": {"tested_on": "antibodies raised to the consensus peptide", "assay": "ELISA of 8-mer peptides with rabbit antibodies", "settings": "for interaction of peptides with the antibodies raised to the consensus peptide: rabbit antibodies raised to consensus peptide SEQ ID NO:1; for reactivity of 8-mer peptides with antibodies from the rabbits: rabbit antibodies raised to consensus peptide SEQ ID NO:1, biotin-SGSG-peptide on streptavidin", "method": "(§1) Blocks of pins for cleavable syntheses were obtained from Chiron Mimotopes U.S. Peptide synthesis was carried out according to the manufacturer's instructions using Opfp-derivatized amino acids. Peptides of length 8 with 7 overlap were manufactured in order to locate all linear epitopes in the sequence with a highest redundancy. […] Peptides were cleaved from the pins using 0.1 M phosphate buffer, pH 8.0, containing 40% acetonitrile. Two peptides were made and sacrificed for amino acid analysis as proof of peptide purity. A dinitrophenol (DNP) pin was included so that the efficiency of the cleavage could be monitored spectrophotometrically.\n(§2) For blocking, a composition containing 5% nonfat dry milk in PBS+0.2% sodium azide was used. Stock streptavidin (Calbiochem Corp., La Jolla, Calif.) at 1 mg/ml in water was kept frozen in aliquots for up to several months. On the day of use, the stock streptavidin was diluted in phosphate buffered saline (PBS) to provide a concentration of 5 μg/ml streptavidin. Goat F(ab′)2 anti-mouse, anti-rabbit and anti-human sera were labeled with alkaline phosphatase (Biosource, International, Camarillo, Calif.).\n(§3) Streptavidin was plated at 5 μg/ml, 50 μl per well, and incubated over night at 4° C. Plates were then washed by hand (Nunc Immunowash 12 hand plate washer. Fisher Scientific, Pittsburgh, Pa.) three times with PBS/0.1% TWEEN 20™. Peptides were then diluted to 10 μg/ml in PBS and plated at 50-μl/well. After incubation for one hour at room temperature followed by washing, the peptides were incubated with sera diluted in blocker at appropriate concentrations (5% nonfat dry milk) for 2 hours at room temperature. After washing the wells, 50 μl of phosphatase-labeled anti-serum IgG diluted 1:1000 in blocker was added to each well and was allowed to incubate at room temperature for 1 hour. The plates were washed. The 100 μl of PNDP (p-nitrophenylphosphate) substrate, prepared according to the manufacturer's instructions, was added to each well. Results were read at 5, 15 and 60 minutes using a microtiter plate reader (UVmax™, Moelcular Devices, Sunnyvale, Calif.).\nAntibodies from the rabbits were then tested against the specific 8-mer peptides obtained from SEQ ID NO:1 in the manner disclosed above to determine the binding sites of the antibodies in the sera with the consensus peptide."}, "Antibody to 0166 lower": {"tested_on": "Antibody to 0166 lower", "assay": "ELISA of 8-mer peptides (pins) with rabbit serum", "method": "as §1, §2, §3\n(§4) Partially to fully purified colonization factor (40% to 100% pure) was run on SDS-PAGE gel (5-15 μg/lane of 10 comb gel (precast 10 comb, 1 mm thickness, Tris-tricene gel from Novex, San Diego, Calif.), for primary immunization run 9 lanes for each rabbit (45-135 μg CF protein with ½ the amount used in the primary immunization used as a booster). The gel was stained with 0.5% COOMASSIE BLUE™ (BioRad, Richmond, Calif.) in water for 1 hour, then destained with multiple changes of water for 60-90 minutes. The colonization factor bands were excised with a scalpel and the excess gel trimmed. The bands were stored at −20° C. until use.\n(§5) After removal from freezer, the gel slices were transferred to a glass tissue homogenizer using a teflon pestle with grooves at the tip. The slices were ground with 0.3 ml phosphate buffered saline (PBS). The drill was run to homogenize the gel for 30 to 45 seconds. (In the instant case, a pestle with a shaft of steel was used which allowed placement of the pestle into the chuck of the hand-held drill.)\n(§6) The homogenate was transferred to 16 mm×150 mm test tubes with disposable plastic transfer pipet. The pestle and homogenizer vessel was rinsed repeatedly with PBS and the contents transferred to the 16×150 test tube until a volume of 1.2 ml was obtained.\n(§7) The sample obtained above was placed in a vortex mixer and vortexed on high. Freund's adjuvant 1.2 ml was added. (Complete Freund's was used for the primary immunization, while incomplete Freund's was used for the boost.) The composition was vortexed until a thick emulsion of almost a butter consistency was obtained (12-20 minutes).\n(§8) A preimmune serum was obtained on all animals, which were then immunized with the 1 ml of the emulsion subcutaneously at 4-6 spots on the shoulders and rump. The animals were boosted three weeks later, then bleed 10 days after the booster shots. […]"}, "Antibody to 0166 upper": {"tested_on": "Antibody to 0166 upper", "assay": "ELISA of 8-mer peptides (pins) with rabbit serum", "method": "as §1, §2, §3, §4, §5, §6, §7, §8"}, "Antibody to CS17": {"tested_on": "Antibody to CS17", "assay": "ELISA of 8-mer peptides (pins) with rabbit serum", "settings": "a listed pin number means recognized", "method": "as §1, §2, §3, §4, §5, §6, §7, §8"}, "Antibody to CS1": {"tested_on": "Antibody to CS1", "assay": "ELISA of 8-mer peptides (pins) with rabbit serum", "settings": "a listed pin number means recognized", "method": "as §1, §2, §3, §4, §5, §6, §7, §8"}, "Antibody to CS2": {"tested_on": "Antibody to CS2", "assay": "ELISA of 8-mer peptides (pins) with rabbit serum", "settings": "a listed pin number means recognized", "method": "as §1, §2, §3, §4, §5, §6, §7, §8"}, "Antibody to CS4": {"tested_on": "Antibody to CS4", "assay": "ELISA of 8-mer peptides (pins) with rabbit serum", "settings": "a listed pin number means recognized", "method": "as §1, §2, §3, §4, §5, §6, §7, §8"}, "Antibody to CFA/I": {"tested_on": "Antibody to CFA/I", "assay": "ELISA of 8-mer peptides (pins) with rabbit serum", "method": "as §1, §2, §3, §4, §5, §6, §7, §8"}, "[2]": {"settings": "rabbit 1082, a listed pin number means recognized"}, "[3]": {"settings": "rabbit 1081, a listed pin number means recognized"}, "[4]": {"settings": "rabbit 1083, a listed pin number means recognized"}, "[5]": {"settings": "rabbit 934, a listed pin number means recognized"}, "[6]": {"settings": "rabbit 1078, a listed pin number means recognized"}, "[7]": {"settings": "rabbit 1079, a listed pin number means recognized"}},
  "data": [
    {"sequence": "ASVDPTID (listed as Escherichia coli) [compound 9]", "values": [
      {"measurement": "interaction of peptides with the antibodies raised to the consensus peptide", "setting": "[1]", "result": "more reliably interactive"},
      {"measurement": "reactivity of 8-mer peptides with antibodies from the rabbits", "setting": "[1]", "result": "most reactive"},
      {"measurement": "pins (8-aa peptide) recognized by serum", "setting": "Antibody to 0166 lower; [2]", "result": 9},
      {"measurement": "pins (8-aa peptide) recognized by serum", "setting": "Antibody to 0166 upper; [3]", "result": 9},
      {"measurement": "pins (8-aa peptide) recognized by serum", "setting": "Antibody to CS17; Antibody to CS17, rabbit 1084", "result": 9},
      {"measurement": "pins (8-aa peptide) recognized by serum", "setting": "Antibody to CS1; Antibody to CS1, rabbit 1090", "result": 9},
      {"measurement": "pins (8-aa peptide) recognized by serum", "setting": "Antibody to CS2; Antibody to CS2, rabbit 1076", "result": 9},
      {"measurement": "pins (8-aa peptide) recognized by serum", "setting": "Antibody to CS2; Antibody to CS2, rabbit 1077", "result": 9},
      {"measurement": "pins (8-aa peptide) recognized by serum", "setting": "Antibody to CS4; Antibody to CS4, rabbit 938", "result": 9}
    ]},
    {"sequence": "KNITVTAS (listed as Escherichia coli) [compound 3]", "values": [
      {"measurement": "reactivity of 8-mer peptides with antibodies from the rabbits", "setting": "[1]", "result": "most reactive"},
      {"measurement": "pins (8-aa peptide) recognized by serum", "setting": "Antibody to 0166 lower; [4]", "result": 3},
      {"measurement": "pins (8-aa peptide) recognized by serum", "setting": "Antibody to CS17; Antibody to CS17, rabbit 1080", "result": 3},
      {"measurement": "pins (8-aa peptide) recognized by serum", "setting": "Antibody to CS1; Antibody to CS1, rabbit 1089", "result": 3},
      {"measurement": "pins (8-aa peptide) recognized by serum", "setting": "Antibody to CS4; Antibody to CS4, rabbit 940", "result": 3}
    ]},
    {"sequence": "PTIDLLQA (listed as Escherichia coli) [compound 13]", "values": [
      {"measurement": "interaction of peptides with the antibodies raised to the consensus peptide", "setting": "[1]", "result": "more reliably interactive"},
      {"measurement": "reactivity of 8-mer peptides with antibodies from the rabbits", "setting": "[1]", "result": "most reactive"},
      {"measurement": "pins (8-aa peptide) recognized by serum", "setting": "Antibody to 0166 lower; [2]", "result": 13},
      {"measurement": "pins (8-aa peptide) recognized by serum", "setting": "Antibody to 0166 lower; [4]", "result": 13},
      {"measurement": "pins (8-aa peptide) recognized by serum", "setting": "Antibody to 0166 upper; [5]", "result": 13},
      {"measurement": "pins (8-aa peptide) recognized by serum", "setting": "Antibody to 0166 upper; [3]", "result": 13},
      {"measurement": "pins (8-aa peptide) recognized by serum", "setting": "Antibody to CFA/I; [6]", "result": 13},
      {"measurement": "pins (8-aa peptide) recognized by serum", "setting": "Antibody to CFA/I; [7]", "result": 13},
      {"measurement": "pins (8-aa peptide) recognized by serum", "setting": "Antibody to CS1; Antibody to CS1, rabbit 1089", "result": 13},
      {"measurement": "pins (8-aa peptide) recognized by serum", "setting": "Antibody to CS1; Antibody to CS1, rabbit 1090", "result": 13},
      {"measurement": "pins (8-aa peptide) recognized by serum", "setting": "Antibody to CS4; Antibody to CS4, rabbit 938", "result": 13},
      {"measurement": "pins (8-aa peptide) recognized by serum", "setting": "Antibody to CS4; Antibody to CS4, rabbit 940", "result": 13}
    ]},
    {"sequence": "TIDLLQAD (listed as Escherichia coli) [compound 14]", "values": [
      {"measurement": "reactivity of 8-mer peptides with antibodies from the rabbits", "setting": "[1]", "result": "most reactive"},
      {"measurement": "pins (8-aa peptide) recognized by serum", "setting": "Antibody to 0166 lower; [2]", "result": 14},
      {"measurement": "pins (8-aa peptide) recognized by serum", "setting": "Antibody to 0166 upper; [5]", "result": 14},
      {"measurement": "pins (8-aa peptide) recognized by serum", "setting": "Antibody to CFA/I; [6]", "result": 14},
      {"measurement": "pins (8-aa peptide) recognized by serum", "setting": "Antibody to CFA/I; [7]", "result": 14},
      {"measurement": "pins (8-aa peptide) recognized by serum", "setting": "Antibody to CS4; Antibody to CS4, rabbit 940", "result": 14}
    ]},
    {"sequence": "VDPTIDLL (listed as Escherichia coli) [compound 11]", "values": [
      {"measurement": "interaction of peptides with the antibodies raised to the consensus peptide", "setting": "[1]", "result": "more reliably interactive"},
      {"measurement": "reactivity of 8-mer peptides with antibodies from the rabbits", "setting": "[1]", "result": "most reactive"},
      {"measurement": "pins (8-aa peptide) recognized by serum", "setting": "Antibody to 0166 lower; [2]", "result": 11},
      {"measurement": "pins (8-aa peptide) recognized by serum", "setting": "Antibody to 0166 upper; [3]", "result": 11},
      {"measurement": "pins (8-aa peptide) recognized by serum", "setting": "Antibody to CFA/I; [7]", "result": 11},
      {"measurement": "pins (8-aa peptide) recognized by serum", "setting": "Antibody to CS1; Antibody to CS1, rabbit 1089", "result": 11},
      {"measurement": "pins (8-aa peptide) recognized by serum", "setting": "Antibody to CS1; Antibody to CS1, rabbit 1090", "result": 11},
      {"measurement": "pins (8-aa peptide) recognized by serum", "setting": "Antibody to CS2; Antibody to CS2, rabbit 1076", "result": 11},
      {"measurement": "pins (8-aa peptide) recognized by serum", "setting": "Antibody to CS2; Antibody to CS2, rabbit 1077", "result": 11},
      {"measurement": "pins (8-aa peptide) recognized by serum", "setting": "Antibody to CS4; Antibody to CS4, rabbit 938", "result": 11},
      {"measurement": "pins (8-aa peptide) recognized by serum", "setting": "Antibody to CS4; Antibody to CS4, rabbit 940", "result": 11}
    ]}
  ]
}
